Source: ChEMBL document CHEMBL6134830, “Naturally inspired chimeric quinolone derivatives to reverse bacterial drug resistance” (Eur J Med Chem, 2025)
In brackets after ≈: the same amount, converted by molar mass. Numbered stars: 1 amine (or outer) side, 2 acyl side, 3 side chain; on linkers, the order of the positions; unused ones are H or OH. Bridge positions count the residues as written; N and C are the ends. Square brackets hold non-standard residues; d marks the D form. Peptide text beside a SMILES is read from it. * marks the point of attachment. X1 = O=C(O)c1cn(C2CC2)c2cc(N3CCN(*)CC3)c(F)cc2c1=O; NH(CH2)11CH3 = CCCCCCCCCCCCN*; Suc = O=C(CCC(=O)[*:2])[*:1]; X2 = CC[C@H](C)CCCCC(=O)*; dDab = NCC[C@@H](N)C(=O)O; Dab = NCC[C@H](N)C(=O)O

Key:
Staphylococcus aureus [1] = assay: Antimicrobial activity against Staphylococcus aureus ATCC 25923 assessed as inhibition of bacterial growth measured after 20 hrs by CLSI protocol based Muller Hinton broth assay; format: functional
Cell membrane = assay: Disruption of cell membrane in methicillin-resistant Staphylococcus aureus assessed as PI-positive bacteria at 8 times MIC measured after 30 mins by PI staining based flow cytometry analysis (reference value: 7.49 %); format: subcellular
Enterococcus gallinarum = assay: Antimicrobial activity against Enterococcus gallinarum ATCC 49573 assessed as inhibition of bacterial growth measured after 20 hrs by CLSI protocol based Muller Hinton broth assay; format: functional
Escherichia coli = assay: Antimicrobial activity against Escherichia coli ATCC 25922 assessed as inhibition of bacterial growth measured after 20 hrs by CLSI protocol based Muller Hinton broth assay; format: functional
Staphylococcus aureus [2] = assay: Antimicrobial activity against Methicillin-resistant Staphylococcus aureus ATCC 43300 assessed as inhibition of bacterial growth measured after 20 hrs by CLSI protocol based Muller Hinton broth assay; format: functional
Pseudomonas aeruginosa = assay: Antimicrobial activity against Pseudomonas aeruginosa ATCC 27853 assessed as inhibition of bacterial growth measured after 20 hrs by CLSI protocol based Muller Hinton broth assay; format: functional
Acinetobacter baumannii = assay: Antimicrobial activity against Acinetobacter baumannii ATCC 19606 assessed as inhibition of bacterial growth measured after 20 hrs by CLSI protocol based Muller Hinton broth assay; format: functional
[3] = Hemolytic activity in Sprague-Dawley rat Red blood cells at 100 ug/ml incubated for 1 hrs by absorbance based analysis; format: toxicity, cell-based; details: erythrocyte, dose 100 µg/ml
Enterococcus faecalis = assay: Antimicrobial activity against Enterococcus faecalis ATCC 19433 assessed as inhibition of bacterial growth measured after 20 hrs by CLSI protocol based Muller Hinton broth assay; format: functional
L929 = assay: Cytotoxicity against mouse L929 cells assessed as reduction in cell viability at 25 microg/mL incubated for 24 hrs by MTT assay; format: toxicity, cell-based; details: l929, 24 h, dose 25 µg/ml

| MIC (Staphylococcus aureus [1]) [µg/mL] | Compound | other results |
| --- | --- | --- |
| 6.25 (≈ 7.26 µM) | CCCCCCCCCNC(=O)[C@H](CCCCN)NC(=O)[C@H](CCCCN)NC(=O)c1ccc(C(=O)N2CCN(c3cc4c(cc3F)c(=O)c(C(=O)O)cn4C3CC3)CC2)cc1 |  |
| 25 (≈ 36.2 µM) | CCCCCCNC(=O)[C@H](CCCCN)NC(=O)c1ccc(C(=O)N2CCN(c3cc4c(cc3F)c(=O)c(C(=O)O)cn4C3CC3)CC2)cc1 |  |
| > 50 | CCCCCCCCCCCCCCCCNC(=O)[C@H](CCCCN)NC(=O)[C@H](CCCCN)NC(=O)[C@H](CCCCN)NC(=O)c1ccc(C(=O)N2CCN(c3cc4c(cc3F)c(=O)c(C(=O)O)cn4C3CC3)CC2)cc1 |  |
| 6.25 (≈ 5.55 µM) | CCCCCCCCCCCCNC(=O)[C@H](CCCCN)NC(=O)[C@H](CCCCN)NC(=O)[C@H](CCCCN)NC(=O)CCNC(=O)CCNC(=O)CCC(=O)N1CCN(c2cc3c(cc2F)c(=O)c(C(=O)O)cn3C2CC2)CC1 |  |
| 6.25 (≈ 6.06 µM) | CCCCCCCCCCCCNC(=O)[C@H](CCCCN)NC(=O)[C@H](CCCCN)NC(=O)[C@H](CCCCN)NC(=O)c1ccc(C(=O)N2CCN(c3cc4c(cc3F)c(=O)c(C(=O)O)cn4C3CC3)CC2)cc1 |  |
| 12.5 (≈ 11.3 µM) | CCCCCCCCCCCCNC(=O)[C@H](CCCCN)NC(=O)[C@H](CCCCN)NC(=O)[C@H](CCCCN)NC(=O)CCCCCCNC(=O)CCC(=O)N1CCN(c2cc3c(cc2F)c(=O)c(C(=O)O)cn3C2CC2)CC1 |  |
|  | CC(C)CCCCC(=O)N[C@@H](CCN)C(=O)N[C@H](C(=O)N[C@@H](CCN)C(=O)N[C@H]1CCNC(=O)[C@H]([C@@H](C)O)NC(=O)[C@H](CCN)NC(=O)[C@H](CCN)NC(=O)[C@H](CC(C)C)NC(=O)[C@@H](Cc2ccccc2)NC(=O)[C@@H](CCN)NC1=O)[C@@H](C)O.CC[C@H](C)CCCCC(=O)N[C@@H](CCN)C(=O)N[C@H](C(=O)N[C@@H](CCN)C(=O)N[C@H]1CCNC(=O)[C@H]([C@@H](C)O)NC(=O)[C@H](CCN)NC(=O)[C@H](CCN)NC(=O)[C@H](CC(C)C)NC(=O)[C@@H](Cc2ccccc2)NC(=O)[C@@H](CCN)NC1=O)[C@@H](C)O (X2-[Dab]T[Dab][Dab][dDab][dF]L[Dab][Dab]T; lactam 4-C) | Activity (Cell membrane): 57.2% |
| 3.12 (≈ 3.16 µM) | CCCCCCCCCNC(=O)[C@H](CCCCN)NC(=O)[C@H](CCCCN)NC(=O)[C@H](CCCCN)NC(=O)c1ccc(C(=O)N2CCN(c3cc4c(cc3F)c(=O)c(C(=O)O)cn4C3CC3)CC2)cc1 |  |
| 12.5 (≈ 11.1 µM) | CCCCCCCCCCCCNC(=O)[C@H](CCCCN)NC(=O)[C@H](CCCCN)NC(=O)[C@H](CCCCN)NC(=O)COCCOCCNC(=O)CCC(=O)N1CCN(c2cc3c(cc2F)c(=O)c(C(=O)O)cn3C2CC2)CC1 |  |
| ≥ 12.5 | N[C@@H](Cc1c[nH]cn1)C(=O)N1CCN(c2cc3c(cc2F)c(=O)c(C(=O)O)cn3C2CC2)CC1 |  |
| > 100 | CCCCCCCCCCCCCCCCNC(=O)[C@H](CCCCN)NC(=O)c1ccc(C(=O)N2CCN(c3cc4c(cc3F)c(=O)c(C(=O)O)cn4C3CC3)CC2)cc1 |  |
| 25 (≈ 31.1 µM) | CCCCCCCCCCCCCCNC(=O)[C@H](CCCCN)NC(=O)c1ccc(C(=O)N2CCN(c3cc4c(cc3F)c(=O)c(C(=O)O)cn4C3CC3)CC2)cc1 |  |
| 6.25 (≈ 7.14 µM) | CCCCCCCCCCNC(=O)[C@H](CCCCN)NC(=O)[C@H](CCCCN)NC(=O)c1ccc(C(=O)N2CCN(c3cc4c(cc3F)c(=O)c(C(=O)O)cn4C3CC3)CC2)cc1 |  |
| 6.25 (≈ 9.6 µM) | CCCCCCCCCCCC(=O)N[C@@H](Cc1c[nH]cn1)C(=O)N1CCN(c2cc3c(cc2F)c(=O)c(C(=O)O)cn3C2CC2)CC1 |  |
| 50 (≈ 64.7 µM) | NCCCC[C@H](NC(=O)c1ccc(C(=O)N2CCN(c3cc4c(cc3F)c(=O)c(C(=O)O)cn4C3CC3)CC2)cc1)C(=O)NCc1ccc(-c2ccccc2)cc1 |  |
| 25 (≈ 34.2 µM) | NCCCC[C@H](NC(=O)c1ccc(C(=O)N2CCN(c3cc4c(cc3F)c(=O)c(C(=O)O)cn4C3CC3)CC2)cc1)C(=O)NCc1ccccc1Cl |  |
| 25 (≈ 27.7 µM) | CCCCCCCCCCCCNC(=O)[C@H](CCCCN)NC(=O)[C@H](CCCCN)NC(=O)c1ccc(C(=O)N2CCN(c3cc4c(cc3F)c(=O)c(C(=O)O)cn4C3CC3)CC2)cc1 |  |
| 3.12 (≈ 3.2 µM) | CCCCCCCCNC(=O)[C@H](CCCCN)NC(=O)[C@H](CCCCN)NC(=O)[C@H](CCCCN)NC(=O)c1ccc(C(=O)N2CCN(c3cc4c(cc3F)c(=O)c(C(=O)O)cn4C3CC3)CC2)cc1 |  |
| 6.25 (≈ 9.43 µM) | O=C(Cc1ccc(-c2ccccc2)cc1)N[C@@H](Cc1c[nH]cn1)C(=O)N1CCN(c2cc3c(cc2F)c(=O)c(C(=O)O)cn3C2CC2)CC1 |  |
| ≥ 12.5 | NCCCC[C@H](N)C(=O)N1CCN(c2cc3c(cc2F)c(=O)c(C(=O)O)cn3C2CC2)CC1 |  |

| Compound | MIC (Staphylococcus aureus [1]) [µg/mL] | other results |
| --- | --- | --- |
| CCCCCCCCCCCCNC(=O)[C@H](CCCCN)NC(=O)[C@H](CCCCN)NC(=O)[C@H](CCCCN)NC(=O)[C@H](CO)NC(=O)CCC(=O)N1CCN(c2cc3c(cc2F)c(=O)c(C(=O)O)cn3C2CC2)CC1 ({X1-Suc}-SKKK-{NH(CH2)11CH3}) | 6.25 (≈ 5.84 µM) | MIC (Enterococcus gallinarum): 25 µg/mL (≈ 23.4 µM); MIC (Escherichia coli): 25 µg/mL (≈ 23.4 µM); MIC (Staphylococcus aureus [2]): 12.5 µg/mL (≈ 11.7 µM); MIC (Pseudomonas aeruginosa): 50 µg/mL (≈ 46.7 µM); MIC (Acinetobacter baumannii): 12.5 µg/mL (≈ 11.7 µM); Activity [3]: Toxic; MIC (Enterococcus faecalis): 25 µg/mL (≈ 23.4 µM); Activity (L929): Toxic |
